What all share (assay type): functional, cell-based
Assay [1] deals with A549. The assay is described as follows: Compound was tested for potency against human lung A549 cells using sulforhodamine B assay. (In general: The SRB assay estimates cell density from bound dye.)
Assay [2] has as its system L1210. Description: Compound was tested for potency against multi drug resistant murine leukemia L1210 cells. The following applies: Mus musculus.
In assay [3] the test system is L1210. The assay is described as follows: Compound was tested for potency against multidrug-resistant murine leukemia L1210 cells. The settings on record: Mus musculus.
In assay [4] the test system is RPMI-8226. The assay is described as follows: Compound was tested for potency against human myeloma 8226 cells (40 fold resistant to doxorubicin).
For assay [5], the system named is RPMI-8226. Description: Compound was tested for potency against human myeloma 8226 cells using MTT assay method. Background: Tetrazolium assays rely on reduction of a dye to a coloured formazan, in cell work by metabolically active cells.
The subject of assay [6] is SW480. The assay is described as follows: Compound was tested for potency against human colon carcinoma SW 480 cells in a sulforhodamine B assay.
The test system of a further assay is WiDr. Description: Compound was tested for potency against human colon carcinoma WiDr cells in a sulforhodamine B assay.
For assay [7], the system named is SW480. The assay is described as follows: Compound was tested for potency against human colon carcinoma SW 480 cells in a sulforhodamine B assay; UA=Potency was so low that the IC50 was unachievable.
In assay [8] the test system is A549. Description: Compound was tested for potency against human lung A549 cells using sulforhodamine B assay; UA=Potency was so low that the IC50 was unachievable.

Experimental findings from ChEMBL document CHEMBL1130230, “1,4-disubstituted anthracene antitumor agents” (J Med Chem, 1997) are described below.

Each structure is given as a SMILES string. pIC50: −log10 of the molar value.

The term pIC50 denotes −log10 of the IC50, conventionally taken in molar units. Read a high pIC50 as a small IC50. For the compound `CN(C)CCNC(=O)c1c2ccccc2c(C(=O)NCCN(C)C)c2ccccc12`, the pIC50 in the assay with A549 [1] is 4.00; with L1210 [2], 3.85; with L1210 [3] it was 4.36; with RPMI-8226 [4], less than 5.00; in the assay on RPMI-8226 [5], less than 5.00; with SW480 [6], 4.36. For the same compound, the pIC50 in the assay with WiDr is 4.59.

As to `CN(C)CCNC(=O)c1ccc(C(=O)NCCN(C)C)c2cc3ccccc3cc12`, the pIC50 in the assay with A549 [1] was 6.15; with L1210 [2], 4.54; in the assay with L1210 [3], 5.38; in the assay on RPMI-8226 [4], 5.30; in the assay on RPMI-8226 [5] it was 5.48; in the assay on SW480 [6] it was 5.49. In addition, the pIC50 in the assay with WiDr is 5.85.

Turning to `CN(C)CCNCc1ccc(CNCCN(C)C)c2cc3ccccc3cc12`, the pIC50 in the assay with A549 [1] is 5.09; in the assay on L1210 [2], 5.08; with L1210 [3], 5.55; with RPMI-8226 [4], 5.40; in the assay with RPMI-8226 [5], 5.15; in the assay on SW480 [6], 4.72. Moreover, the pIC50 in the assay on WiDr was 4.77.

As for `C(=N\NC1=NCCN1)/c1ccc(/C=N/NC2=NCCN2)c2cc3ccccc3cc12`, the pIC50 with A549 [1] was 5.30; with L1210 [2] it was 4.89; with L1210 [3], 5.59; in the assay with RPMI-8226 [4] it was 5.17; in the assay with RPMI-8226 [5], 5.25; in the assay with SW480 [6] it was 6.14. Also, the pIC50 with WiDr is 5.80.

Take `CN(C)CCNCc1c2ccccc2c(CNCCN(C)C)c2ccccc12`: the pIC50 is 5.30 in the assay on A549 [1]; 5.44 in the assay with L1210 [2]; 5.48 in the assay with L1210 [3]; 5.52 with RPMI-8226 [4]; 5.52 in the assay with RPMI-8226 [5]; 5.30 in the assay with SW480 [6]. In the assay on WiDr, this compound had a pIC50 of 5.40.

On to `CN(C)CCNCc1ccc(CBr)c2cc3ccccc3cc12`, for which the pIC50 was 4.04 in the assay on A549 [1]; 3.73 in the assay with L1210 [2]; 4.28 in the assay on L1210 [3]; 5.40 in the assay with RPMI-8226 [4]; 4.92 in the assay with RPMI-8226 [5]; 4.82 with WiDr. Moreover, in the assay with SW480 [7], the IC50 result is reported as “Unachievable”.

As for `CN(C)CCNC(=O)c1ccc(C(=O)NCCN(C)C)c2c1C(=O)c1ccccc1C2=O`, the IC50 entry in the assay with A549 [8] and in the assay on SW480 [7] was “Unachievable” each time. Also, the pIC50 in the assay with L1210 [2] was 4.14; in the assay on L1210 [3] it was 4.20; in the assay with RPMI-8226 [4] it was 5.30; with RPMI-8226 [5] it was less than 5.00; in the assay on WiDr, 5.35.

With `C(=N\NC1=NCCN1)/c1c2ccccc2c(/C=N/NC2=NCCN2)c2ccccc12` [BISANTRENE], the pIC50 in the assay on A549 [1] was 7.77; in the assay on L1210 [2], 5.49; in the assay on L1210 [3], 7.31; in the assay on RPMI-8226 [4], 5.04; in the assay with RPMI-8226 [5], 7.74; with SW480 [6], 7.05. The negative-log IC50 (pIC50) in the assay with WiDr is 6.10.
